Experimental data taken from US20250171460A1, “INDUCERS OF KLF2 AND METHODS OF USE THEREOF” (Riparian Pharmaceuticals, Inc., priority 2022, published 2025).

Test system: primary human endothelial cells expressing luciferase under the control of the KLF2 promoter
Test: KLF2 Induction Cell Based Bioassay (luciferase reporter)
Settings: Homo sapiens, Endothelial cell, 24 h, KLF2 promoter luciferase, 24 hours, 11-point concentration response; read-out: Activity Range (EC50)
Text: In endothelial cell culture media, a stock of the highest working concentration was made at no more than 1% DMSO vehicle. The working stock was then serially diluted 1:2 to make an 11-point concentration response curve. Included in the 96-well plate were 2 reference compounds with known potencies. A DMSO column was included in the 96-well plate at the highest percent vehicle of the working stocks. The 96-well cell culture plate of primary human endothelial cells expressing luciferase under the control of the KLF2 promoter was dosed with 200 μL per well of the dilution series as well as the DMSO control column. The assay plate was incubated at 37° C. for 24 hours. The supernatant was collected at 24 hours.
20 μL of the supernatant was then placed in a 384-well plate with optical duplicates. The corners of the plate received 20 μL of the Gaussia Luciferase Enzyme positive control, as well as 20 μL of the 50 μM Coelenterizine substrate. The plate read is then calibrated using the control, and read using a Molecular Devices SpectraMax iD5, providing luminescence in relative light units (RLU). The plate reader injected 20 μL of the 50 μM Coelenterizine substrate immediately before taking the RLU measurement for each well.
The sample signals were then normalized to the average signal of the DMSO column, as well as to the maximum signal of one of the reference compounds, as shown in the equations below: […]
The EC50 of each compound is then defined as when the concentration response curve passes 0.5.

EC50 [nM] | SMILES
501 to 5000 | CC=C1CC(N2C(=O)c3oc4ccccc4c3OCC2(C)C(=O)NCc2ccccc2OC)C1 (racemic) [Example 15]
51 to 500 | COCCN1C(=O)c2oc3cc(C(=O)NC4(C)COC4)ccc3c2OCC1(C)C(=O)NCc1c(F)cccc1OC (racemic) [Example 81]
51 to 500 | COc1cccc(F)c1CNC(=O)C1(C)COc2c(oc3ccc(Cl)cc23)C(=O)N1CC(=O)N(C)C (racemic) [Example 106, 9-chloro-4-(2-(dimethylamino)-2-oxoethyl)-N-(2-fluoro-6-methoxybenzyl)-3-methyl-5-oxo-2,3,4,5-tetrahydrobenzofuro[2,3-f][1,4]oxazepine-3-carboxamide]
51 to 500 | COc1cccc(F)c1CNC(=O)[C@@]1(C)COc2c(oc3ccc(Cl)cc23)C(=O)N1CC(=O)N(C)C (single isomer, unassigned) [Example 107]
501 to 5000 | COc1ccccc1CNC(=O)C1(C)COc2c(oc3ccccc23)C(=O)N1CC1(F)CCC1 (stereo not drawn) [Example 2]
51 to 500 | COc1ccccc1CNC(=O)C1(C)COc2c(oc3ccccc23)C(=O)N1CC(C)(C)OC (stereo not drawn) [Example 3]
501 to 5000 | CCOC(=O)CN1C(=O)c2oc3ccccc3c2OCC1(C)C(=O)NCc1ccccc1OC (stereo not drawn) [Example 4]
501 to 5000 | C#CCCN1C(=O)c2oc3ccccc3c2OC[C@]1(C)C(=O)NCc1ccccc1OC [Example 6]
501 to 5000 | C/C=C/CN1C(=O)c2oc3ccccc3c2OCC1(C)C(=O)NCc1ccccc1OC (stereo not drawn) [Example 9]
501 to 5000 | COc1ccccc1CNC(=O)C1(C)COc2c(oc3ccccc23)C(=O)N1CC1(OC)CCC1 (stereo not drawn) [Example 10]
501 to 5000 | COc1ccccc1CNC(=O)C1(C)COc2c(oc3ccccc23)C(=O)N1CC1(O)CCC1 (stereo not drawn) [Example 11]
501 to 5000 | C=CCN1C(=O)c2oc3ccccc3c2OCC1(C)C(=O)NCc1ccccc1OC (stereo not drawn) [Example 12]
501 to 5000 | COc1ccccc1CNC(=O)C1(C)COc2c(oc3ccccc23)C(=O)N1C1CCC1 (stereo not drawn) [Example 13]
51 to 500 | COc1ccccc1CNC(=O)C1(C)COc2c(oc3ccccc23)C(=O)N1C1CC2(CC2)C1 (stereo not drawn) [Example 14]
501 to 5000 | COCCN1C(=O)c2oc3ccccc3c2OCC1(C)C(=O)NCc1c(F)cc(Cl)cc1OC (stereo not drawn) [Example 16]
501 to 5000 | COCCN1C(=O)c2oc3ccccc3c2OCC1(C)C(=O)NCc1c(OC)ccc(F)c1Cl (stereo not drawn) [Example 17]
501 to 5000 | COCCN1C(=O)c2oc3ccccc3c2OCC1(C)C(=O)NCc1cc2ncccc2cc1OC (stereo not drawn) [Example 18]
501 to 5000 | COCCN1C(=O)c2oc3ccccc3c2OCC1(C)C(=O)NCc1c(OC)ccc2cnccc12 (stereo not drawn) [Example 19]
501 to 5000 | COCCN1C(=O)c2oc3ccccc3c2OCC1(C)C(=O)NCc1c(OC)ccc2cccnc12 (stereo not drawn) [Example 20]
501 to 5000 | COCCN1C(=O)c2oc3ccccc3c2OCC1(C)C(=O)NCc1c(OC)ccc(F)c1F (stereo not drawn) [Example 21]

EC50 [nM] | SMILES
501 to 5000 | COCCN1C(=O)c2oc3ccccc3c2OCC1(C)C(=O)NCc1c(F)cc(F)cc1OC (stereo not drawn) [Example 22]
501 to 5000 | COCCN1C(=O)c2oc3ccccc3c2OCC1(C)C(=O)NCc1cc(Cl)ccc1OC (stereo not drawn) [Example 23]
501 to 5000 | COCCN1C(=O)c2oc3ccccc3c2OCC1(C)C(=O)NCc1c(Cl)cccc1OC (stereo not drawn) [Example 24]
501 to 5000 | COCCN1C(=O)c2oc3ccccc3c2OCC1(C)C(=O)NCc1ccc(Cl)cc1OC (stereo not drawn) [Example 25]
501 to 5000 | COCCN1C(=O)c2oc3ccccc3c2OCC1(C)C(=O)NCc1c(OC)cccc1C(N)=O (stereo not drawn) [Example 26]
501 to 5000 | COCCN1C(=O)c2oc3ccccc3c2OCC1(C)C(=O)NCc1c(OC)cccc1C(=O)OC (stereo not drawn) [Example 27]
501 to 5000 | COCCN1C(=O)c2oc3ccccc3c2OCC1(C)C(=O)NCc1c(C#N)cccc1OC (stereo not drawn) [Example 28]
501 to 5000 | COCCN1C(=O)c2oc3ccccc3c2OCC1(C)C(=O)NCc1cc(Cl)c(F)cc1OC (stereo not drawn) [Example 29]
501 to 5000 | COCCN1C(=O)c2oc3ccccc3c2OCC1(C)C(=O)NCc1c(OC)ccc2ccncc12 (stereo not drawn) [Example 30]
501 to 5000 | COCCN1C(=O)c2oc3ccccc3c2OCC1(C)C(=O)NCc1cc2ccccc2cc1OC (stereo not drawn) [Example 31]
501 to 5000 | COCCN1C(=O)c2oc3ccccc3c2OCC1(C)C(=O)NCc1c(OC)ccc2ccccc12 (stereo not drawn) [Example 32]
501 to 5000 | COCCN1C(=O)c2oc3ccccc3c2OCC1(C)C(=O)NCc1c(OC)cccc1OC (stereo not drawn) [Example 33]
501 to 5000 | COCCN1C(=O)c2oc3ccccc3c2OCC1(C)C(=O)NCc1cc(C)ccc1OC (stereo not drawn) [Example 34]
501 to 5000 | COCCN1C(=O)c2oc3ccccc3c2OCC1(C)C(=O)NCc1cc(OC)ccc1OC (stereo not drawn) [Example 35]
501 to 5000 | [2H]C([2H])([2H])Oc1ccccc1CNC(=O)C1(C)COc2c(oc3ccccc23)C(=O)N1CCOC (stereo not drawn) [Example 36]
501 to 5000 | COCCN1C(=O)c2oc3ccccc3c2OCC1(C)C(=O)NCc1c(F)cccc1OC (stereo not drawn) [Example 37]
501 to 5000 | COCCN1C(=O)c2oc3ccccc3c2OCC1(C)C(=O)NCc1cc(F)ccc1OC (stereo not drawn) [Example 38]
501 to 5000 | COCCN1C(=O)c2oc3ccccc3c2OCC1(C)C(=O)NCc1ccc(F)cc1OC (stereo not drawn) [Example 39]
501 to 5000 | COCCN1C(=O)c2oc3ccccc3c2OC[C@]1(C)C(=O)NCc1ccccc1OC [Example 40]
501 to 5000 | COCCN1C(=O)c2oc3ccccc3c2OCC1(C)C(=O)NCc1ccc2ccccc2c1OC (stereo not drawn) [Example 41]

EC50 [nM] | SMILES
501 to 5000 | COCCN1C(=O)c2oc3ccccc3c2OCC1(C)C(=O)NCc1ccc(C)cc1OC (stereo not drawn) [Example 43]
501 to 5000 | COCCN1C(=O)c2oc3ccccc3c2OCC1(C)C(=O)NCc1c(Cl)cc(Cl)cc1OC (stereo not drawn) [Example 44]
501 to 5000 | COCCN1C(=O)c2oc3ccccc3c2OCC1(C)C(=O)NCc1cc(F)c(Cl)cc1OC (stereo not drawn) [Example 45]
501 to 5000 | COCCN1C(=O)c2oc3ccccc3c2OCC1(C)C(=O)NCc1c(OC)ccc(Cl)c1F (stereo not drawn) [Example 46]
501 to 5000 | COCCN1C(=O)c2oc3ccccc3c2OCC1(C)C(=O)NCc1ncccc1OC (stereo not drawn) [Example 47]
501 to 5000 | COCCN1C(=O)c2oc3ccccc3c2OCC1(C)C(=O)NCc1c(Cl)cc(F)cc1OC (stereo not drawn) [Example 48]
501 to 5000 | COCCN1C(=O)c2oc3cc(C(=O)NC4CCC4)ccc3c2OC[C@@]1(C)C(=O)NCc1ccccc1OC [Example 49, (S)—N8-cyclobutyl-N3-(2-methoxybenzyl)-4-(2-methoxyethyl)-3-methyl-5-oxo-2,3,4,5-tetrahydrobenzofuro[2,3-f][1,4]oxazepine-3,8-dicarboxamide]
51 to 500 | COCCN1C(=O)c2oc3cc(C(=O)NC4CCC4)ccc3c2OC[C@]1(C)C(=O)NCc1ccccc1OC [Example 50, (R)—N8-cyclobutyl-N3-(2-methoxybenzyl)-4-(2-methoxyethyl)-3-methyl-5-oxo-2,3,4,5-tetrahydrobenzofuro[2,3-f][1,4]oxazepine-3,8-dicarboxamide]
51 to 500 | COc1cccnc1CNC(=O)C1(C)COc2c(oc3cc(C(=O)NC4(C)COC4)ccc23)C(=O)N1CC1CC1 (stereo not drawn) [Example 52]
51 to 500 | COc1cccnc1CNC(=O)C1(C)COc2c(oc3cc(C(=O)NC4CCC4)ccc23)C(=O)N1CC1CC1 (stereo not drawn) [Example 53]
51 to 500 | COc1cccnc1CNC(=O)C1(C)COc2c(oc3cc(C(=O)NC4CCC4)ccc23)C(=O)N1[C@H]1C[C@@H](OC)C1 (stereo partly drawn) [Example 54]
51 to 500 | COc1cccc(C#N)c1CNC(=O)C1(C)COc2c(oc3cc(C(=O)NC4(C)COC4)ccc23)C(=O)N1[C@H]1C[C@@H](OC)C1 (stereo partly drawn) [Example 55]
51 to 500 | COc1cccc(C#N)c1CNC(=O)C1(C)COc2c(oc3cc(C(=O)NC4CCC4)ccc23)C(=O)N1[C@H]1C[C@@H](OC)C1 (stereo partly drawn) [Example 56]
51 to 500 | COc1ccc(F)c(F)c1CNC(=O)C1(C)COc2c(oc3cc(C(=O)NC4CCC4)ccc23)C(=O)N1CC1CC1 (stereo not drawn) [Example 58]
51 to 500 | COc1cc(F)ccc1CNC(=O)C1(C)COc2c(oc3cc(C(=O)NC4(C)COC4)ccc23)C(=O)N1CC1CC1 (stereo not drawn) [Example 59]
51 to 500 | COCCN1C(=O)c2oc3cc(C(=O)NC4CCC4)ccc3c2OCC1(C)C(=O)NCc1c(OC)ccc(F)c1F (stereo not drawn) [Example 61]
51 to 500 | COCCN1C(=O)c2oc3cc(C(=O)NC4(C)COC4)ccc3c2OCC1(C)C(=O)NCc1c(C#N)cccc1OC (stereo not drawn) [Example 62]
51 to 500 | COCCN1C(=O)c2oc3cc(C(=O)NC4(C)COC4)ccc3c2OCC1(C)C(=O)NCc1c(OC)ccc(F)c1F (stereo not drawn) [Example 63]
51 to 500 | COCCN1C(=O)c2oc3cc(C(=O)NC4(C)COC4)ccc3c2OCC1(C)C(=O)NCc1c(Cl)cccc1OC (stereo not drawn) [Example 64]
51 to 500 | COc1cccc(C#N)c1CNC(=O)C1(C)COc2c(oc3cc(C(=O)NC4(C)COC4)ccc23)C(=O)N1CC1CC1 (stereo not drawn) [Example 65]

Same assay, conditions: Homo sapiens, Endothelial cell, Bioactivity of stereoisomers: R isomer; read-out: Bioactivity Bucket, R

EC50 [nM] | SMILES
51 to 500 | COc1cccc(F)c1CNC(=O)[C@@]1(C)COc2c(oc3ccc(Cl)cc23)C(=O)N1CC(=O)N(C)C (single isomer, unassigned) [Example 107]
501 to 5000 | C#CCCN1C(=O)c2oc3ccccc3c2OC[C@]1(C)C(=O)NCc1ccccc1OC [Example 6]
501 to 5000 | COCCN1C(=O)c2oc3ccccc3c2OC[C@]1(C)C(=O)NCc1ccccc1OC [Example 40]
≤ 50 | COCCN1C(=O)c2oc3cc(C(=O)NC4CCC4)ccc3c2OC[C@]1(C)C(=O)NCc1ccccc1OC [Example 50, (R)—N8-cyclobutyl-N3-(2-methoxybenzyl)-4-(2-methoxyethyl)-3-methyl-5-oxo-2,3,4,5-tetrahydrobenzofuro[2,3-f][1,4]oxazepine-3,8-dicarboxamide]

Same assay, conditions: Homo sapiens, Endothelial cell, Bioactivity of stereoisomers: S isomer; read-out: Bioactivity Bucket, S

EC50 [nM] | SMILES
501 to 5000 | COCCN1C(=O)c2oc3cc(C(=O)NC4CCC4)ccc3c2OC[C@@]1(C)C(=O)NCc1ccccc1OC [Example 49, (S)—N8-cyclobutyl-N3-(2-methoxybenzyl)-4-(2-methoxyethyl)-3-methyl-5-oxo-2,3,4,5-tetrahydrobenzofuro[2,3-f][1,4]oxazepine-3,8-dicarboxamide]

Same assay, conditions: Homo sapiens, Endothelial cell, Bioactivity of stereoisomers: racemate; read-out: Bioactivity Bucket, Racemate

EC50 [nM] | SMILES
501 to 5000 | C#CCCN1C(=O)c2oc3ccccc3c2OCC1(C)C(=O)NCc1ccccc1OC (racemic) [Example 5]
501 to 5000 | CC=C1CC(N2C(=O)c3oc4ccccc4c3OCC2(C)C(=O)NCc2ccccc2OC)C1 (racemic) [Example 15]
51 to 500 | COCCN1C(=O)c2oc3cc(C(=O)NC4(C)COC4)ccc3c2OCC1(C)C(=O)NCc1c(F)cccc1OC (racemic) [Example 81]
51 to 500 | COc1cccc(F)c1CNC(=O)C1(C)COc2c(oc3ccc(Cl)cc23)C(=O)N1CC(=O)N(C)C (racemic) [Example 106, 9-chloro-4-(2-(dimethylamino)-2-oxoethyl)-N-(2-fluoro-6-methoxybenzyl)-3-methyl-5-oxo-2,3,4,5-tetrahydrobenzofuro[2,3-f][1,4]oxazepine-3-carboxamide]
